Data as given in the NIST ThermoML archive (doi:10.1021/je900550v).

Settings: 101.33 kPa, Liquid; for speed of sound: Pulse-echo method; for mass density: Vibrating tube method

CCC(=O)[O-].C[NH2+]CCO [2-hydroxy-N-methylethanaminium propionate]
Settings | mass density [kg/m3] | speed of sound [m/s] | viscosity [mPa·s]
308.15 K | 1064.8 | 1660.5 | 118
308.4 K | 1064.63 | 1659.8 | –
308.65 K | 1064.46 | 1659 | –
308.9 K | 1064.3 | 1658.3 | –
309.15 K | 1064.14 | 1657.6 | –
309.4 K | 1063.97 | 1656.8 | –
309.65 K | 1063.81 | 1656.1 | –
309.9 K | 1063.64 | 1655.4 | –
310.15 K | 1063.48 | 1654.6 | 105.84
310.4 K | 1063.31 | 1653.9 | –
310.65 K | 1063.15 | 1653.1 | –
310.91 K | 1062.98 | 1652.4 | –
311.16 K | 1062.82 | 1651.7 | –
311.4 K | 1062.65 | 1650.9 | –
311.65 K | 1062.49 | 1650.2 | –
311.91 K | 1062.33 | 1649.4 | –
312.16 K | 1062.16 | 1648.7 | –
312.41 K | 1061.99 | 1648 | –
312.66 K | 1061.83 | 1647.2 | –
312.91 K | 1061.66 | 1646.5 | –
313.15 K | – | – | 93.38
313.16 K | 1061.5 | 1645.7 | –
313.4 K | 1061.33 | 1645 | –
313.66 K | 1061.17 | 1644.2 | –
313.9 K | 1061 | 1643.5 | –
314.15 K | 1060.84 | 1642.8 | –
314.4 K | 1060.67 | 1642 | –
314.65 K | 1060.5 | 1641.3 | –
314.9 K | 1060.34 | 1640.5 | –
315.15 K | 1060.17 | 1639.8 | –
315.41 K | 1060.01 | 1639 | –
315.65 K | 1059.84 | 1638.3 | 81.2
315.91 K | 1059.67 | 1637.6 | –
316.16 K | 1059.51 | 1636.8 | –
316.41 K | 1059.34 | 1636.1 | –
316.66 K | 1059.18 | 1635.4 | –
316.91 K | 1059.01 | 1634.6 | –
317.16 K | 1058.84 | 1633.9 | –
317.4 K | 1058.67 | 1633.2 | –
317.66 K | 1058.51 | 1632.4 | –
317.91 K | 1058.34 | 1631.7 | –
318.15 K | – | – | 70.3
318.16 K | 1058.17 | 1630.9 | –
318.41 K | 1058.01 | 1630.2 | –
318.65 K | 1057.84 | 1629.4 | –
318.9 K | 1057.67 | 1628.7 | –
319.16 K | 1057.51 | 1628 | –
319.41 K | 1057.34 | 1627.2 | –
319.65 K | 1057.17 | 1626.5 | 64.18
319.91 K | 1057 | 1625.7 | –
320.16 K | 1056.83 | 1624.9 | –
320.41 K | 1056.67 | 1624.2 | –
320.65 K | 1056.5 | 1623.4 | –
320.91 K | 1056.33 | 1622.7 | –
321.15 K | 1056.16 | 1622 | –
321.41 K | 1056 | 1621.2 | –
321.66 K | 1055.83 | 1620.4 | –
321.9 K | 1055.66 | 1619.7 | –
322.15 K | 1055.49 | 1618.9 | –
322.41 K | 1055.32 | 1618.2 | –
322.65 K | 1055.15 | 1617.5 | –
322.91 K | 1054.99 | 1616.7 | –
323.15 K | – | – | 55.1
323.16 K | 1054.82 | 1616 | –
323.41 K | 1054.65 | 1615.2 | –
323.65 K | 1054.48 | 1614.5 | –
323.91 K | 1054.31 | 1613.7 | –
324.16 K | 1054.15 | 1613 | –
324.41 K | 1053.97 | 1612.2 | –
324.65 K | 1053.81 | 1611.4 | –
324.9 K | 1053.64 | 1610.7 | –
325.16 K | 1053.47 | 1609.9 | –
325.4 K | 1053.3 | 1609.2 | –
325.66 K | 1053.13 | 1608.4 | –
325.9 K | 1052.96 | 1607.7 | –
326.16 K | 1052.79 | 1606.9 | –
326.41 K | 1052.62 | 1606.2 | –
326.66 K | 1052.45 | 1605.4 | –
326.9 K | 1052.29 | 1604.7 | –
327.16 K | 1052.12 | 1603.9 | –
327.4 K | 1051.94 | 1603.2 | –
327.66 K | 1051.78 | 1602.4 | –
327.9 K | 1051.61 | 1601.7 | –
328.15 K | 1051.44 | 1600.9 | –
328.41 K | 1051.27 | 1600.2 | –
328.66 K | 1051.1 | 1599.4 | –
328.9 K | 1050.93 | 1598.6 | –
329.16 K | 1050.76 | 1597.9 | –
329.4 K | 1050.59 | 1597.1 | –
329.65 K | 1050.42 | 1596.4 | –
329.9 K | 1050.24 | 1595.6 | –
330.16 K | 1050.07 | 1594.9 | –
330.41 K | 1049.9 | 1594.1 | –
330.66 K | 1049.73 | 1593.3 | –
330.91 K | 1049.56 | 1592.6 | –
331.16 K | 1049.39 | 1591.8 | –
331.41 K | 1049.22 | 1591.1 | –
331.66 K | 1049.05 | 1590.3 | –
331.91 K | 1048.88 | 1589.5 | –
332.16 K | 1048.71 | 1588.8 | –
332.41 K | 1048.54 | 1588 | –
332.66 K | 1048.36 | 1587.3 | –
332.91 K | 1048.19 | 1586.5 | –
333.16 K | 1048.02 | 1585.7 | –
333.41 K | 1047.85 | 1585 | –
333.66 K | 1047.68 | 1584.2 | –
333.91 K | 1047.51 | 1583.5 | –
334.16 K | 1047.33 | 1582.7 | –
334.41 K | 1047.16 | 1582 | –
334.66 K | 1046.99 | 1581.2 | –
334.91 K | 1046.82 | 1580.5 | –
335.16 K | 1046.64 | 1579.7 | –
335.41 K | 1046.47 | 1579 | –
335.66 K | 1046.3 | 1578.2 | –
335.91 K | 1046.13 | 1577.5 | –
336.16 K | 1045.95 | 1576.7 | –
336.41 K | 1045.78 | 1576 | –
336.66 K | 1045.61 | 1575.2 | –
336.9 K | 1045.44 | 1574.4 | –
337.16 K | 1045.27 | 1573.7 | –
337.4 K | 1045.09 | 1572.9 | –
337.66 K | 1044.92 | 1572.1 | –
337.9 K | 1044.75 | 1571.3 | –
338.15 K | 1044.58 | 1570.6 | –
